# Tested on: PC3 cells
# Assay: NAMPT Cell Proliferation Assay
# Type: cell-based
# Settings: Homo sapiens, PC-3, 120 h, 5 days incubation, cell viability by Cell Titer Glo
# Outline: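 Seeded at 500 cells/well in RPMI with 10% heat-inactivated FBS and left to attach overnight at 37° C, 5% CO2. Compounds were added as 10-fold dilutions […] for 5 days, then viability was read by CellTiter-Glo. IC50s came from sigmoidal fits of percent inhibition.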
smiles,measurement,value
"O=C(Nc1ccc(C2CCN(C(=O)CC3CCCC3)CC2)cc1)[C@H]1CCN(c2cccnn2)C1 [Example 644, (3S)-N-{4-[1-(cyclopentylacetyl)piperidin-4-yl]phenyl}-1-(pyridazin-3-yl)pyrrolidine-3-carboxamide]",IC50,8.23 nM
"O=C(Nc1ccc(C2CCN(C(=O)c3cc(F)ccc3F)CC2)cc1)[C@H]1CCN(c2cccnn2)C1 [Example 645, (3S)-N-{4-[1-(2,5-difluorobenzoyl)piperidin-4-yl]phenyl}-1-(pyridazin-3-yl)pyrrolidine-3-carboxamide]",IC50,3.3 nM
"O=C(Nc1ccc(C2CCN(C(=O)Cc3ccc4ccccc4c3)CC2)cc1)[C@H]1CCN(c2cccnn2)C1 [Example 646, (3S)-N-{4-[1-(naphthalen-2-ylacetyl)piperidin-4-yl]phenyl}-1-(pyridazin-3-yl)pyrrolidine-3-carboxamide]",IC50,58.7 nM
"O=C(Nc1ccc(C2CCN(C(=O)CCS(=O)(=O)c3ccccc3)CC2)cc1)[C@H]1CCN(c2cccnn2)C1 [Example 647, (3S)-N-(4-{1-[3-(phenylsulfonyl)propanoyl]piperidin-4-yl}phenyl)-1-(pyridazin-3-yl)pyrrolidine-3-carboxamide]",IC50,5.73 nM
"O=C(Nc1ccc(C2CCN(C(=O)Cc3cccc(C(F)(F)F)c3)CC2)cc1)[C@H]1CCN(c2cccnn2)C1 [Example 648, (3S)-1-(pyridazin-3-yl)-N-[4-(1-{[3-(trifluoromethyl)phenyl]acetyl}piperidin-4-yl)phenyl]pyrrolidine-3-carboxamide]",IC50,26.8 nM
"O=C(Nc1ccc(C2CCN(C(=O)c3ccco3)CC2)cc1)[C@H]1CCN(c2cccnn2)C1 [Example 649, (3S)-N-{4-[1-(furan-2-ylcarbonyl)piperidin-4-yl]phenyl}-1-(pyridazin-3-yl)pyrrolidine-3-carboxamide]",IC50,1.11 nM
"O=C(NCC(=O)N1CCC(c2ccc(NC(=O)[C@H]3CCN(c4cccnn4)C3)cc2)CC1)c1ccccc1 [Example 650, (3S)-N-{4-[1-(N-benzoylglycyl)piperidin-4-yl]phenyl}-1-(pyridazin-3-yl)pyrrolidine-3-carboxamide]",IC50,86.9 nM
"O=C(Nc1ccc(C2CCN(C(=O)Cc3ccc(Cl)cc3Cl)CC2)cc1)[C@H]1CCN(c2cccnn2)C1 [Example 651, (3S)-N-(4-{1-[(2,4-dichlorophenyl)acetyl]piperidin-4-yl}phenyl)-1-(pyridazin-3-yl)pyrrolidine-3-carboxamide]",IC50,27.6 nM
"Cc1ccccc1C(=O)N1CCC(c2ccc(NC(=O)[C@H]3CCN(c4cccnn4)C3)cc2)CC1 [Example 652, (3S)-N-{4-[1-(2-methylbenzoyl)piperidin-4-yl]phenyl}-1-(pyridazin-3-yl)pyrrolidine-3-carboxamide]",IC50,6.14 nM
"O=C(Nc1ccc(C2CCN(C(=O)CCC(F)(F)F)CC2)cc1)[C@H]1CCN(c2cccnn2)C1 [Example 653, (3S)-1-(pyridazin-3-yl)-N-{4-[1-(4,4,4-trifluorobutanoyl)piperidin-4-yl]phenyl}pyrrolidine-3-carboxamide]",IC50,9.72 nM
"CC1(C(=O)N2CCC(c3ccc(NC(=O)[C@H]4CCN(c5cccnn5)C4)cc3)CC2)CCCCC1 [Example 654, (3S)-N-(4-{1-[(1-methylcyclohexyl)carbonyl]piperidin-4-yl}phenyl)-1-(pyridazin-3-yl)pyrrolidine-3-carboxamide]",IC50,2.76 nM
"O=C(Nc1ccc(C2CCN(C(=O)c3ccsc3)CC2)cc1)[C@H]1CCN(c2cccnn2)C1 [Example 655, (3S)-1-(pyridazin-3-yl)-N-{4-[1-(thiophen-3-ylcarbonyl)piperidin-4-yl]phenyl}pyrrolidine-3-carboxamide]",IC50,0.475 nM
"Cc1ccc(C(=O)N2CCC(c3ccc(NC(=O)[C@H]4CCN(c5cccnn5)C4)cc3)CC2)cn1 [Example 656, (3S)-N-(4-{1-[(6-methylpyridin-3-yl)carbonyl]piperidin-4-yl}phenyl)-1-(pyridazin-3-yl)pyrrolidine-3-carboxamide]",IC50,61 nM
"O=C(Nc1ccc(C2CCN(C(=O)Cc3cccc(Cl)c3)CC2)cc1)[C@H]1CCN(c2cccnn2)C1 [Example 657, (3S)-N-(4-{1-[(3-chlorophenyl)acetyl]piperidin-4-yl}phenyl)-1-(pyridazin-3-yl)pyrrolidine-3-carboxamide]",IC50,8.44 nM
"CCC(=O)N1CCC(c2ccc(NC(=O)[C@H]3CCN(c4cccnn4)C3)cc2)CC1 [Example 658, (3S)-N-[4-(1-propanoylpiperidin-4-yl)phenyl]-1-(pyridazin-3-yl)pyrrolidine-3-carboxamide]",IC50,14.4 nM
"O=C(Nc1ccc(C2CCN(C(=O)c3cc(F)cc(F)c3)CC2)cc1)[C@H]1CCN(c2cccnn2)C1 [Example 659, (3S)-N-{4-[1-(3,5-difluorobenzoyl)piperidin-4-yl]phenyl}-1-(pyridazin-3-yl)pyrrolidine-3-carboxamide]",IC50,11.2 nM
"O=C(Nc1ccc(C2CCN(C(=O)C3CCCC3)CC2)cc1)[C@H]1CCN(c2cccnn2)C1 [Example 660, (3S)-N-{4-[1-(cyclopentylcarbonyl)piperidin-4-yl]phenyl}-1-(pyridazin-3-yl)pyrrolidine-3-carboxamide]",IC50,5.23 nM
"O=C(Nc1ccc(C2CCN(C(=O)C3CCCO3)CC2)cc1)[C@H]1CCN(c2cccnn2)C1 (stereo partly drawn) [Example 661, (3S)-1-(pyridazin-3-yl)-N-{4-[1-(tetrahydrofuran-2-ylcarbonyl)piperidin-4-yl]phenyl}pyrrolidine-3-carboxamide]",IC50,21.6 nM
"O=C(Nc1ccc(C2CCN(C(=O)C3CC3)CC2)cc1)[C@H]1CCN(c2cccnn2)C1 [Example 662, (3S)-N-{4-[1-(cyclopropylcarbonyl)piperidin-4-yl]phenyl}-1-(pyridazin-3-yl)pyrrolidine-3-carboxamide]",IC50,15.9 nM
"O=C(Nc1ccc(C2CCN(C(=O)c3ccc(Cl)cc3)CC2)cc1)[C@H]1CCN(c2cccnn2)C1 [Example 663, (3S)-N-{4-[1-(4-chlorobenzoyl)piperidin-4-yl]phenyl}-1-(pyridazin-3-yl)pyrrolidine-3-carboxamide]",IC50,31.6 nM
"CC(C)Cn1cc(-c2cc(C(=O)N[C@H]3CCN(c4cccnn4)C3)cs2)cn1 [Example 664, 5-[1-(2-methylpropyl)-1H-pyrazol-4-yl]-N-[(3S)-1-(pyridazin-3-yl)pyrrolidin-3-yl]thiophene-3-carboxamide]",IC50,1150 nM
"Cc1cc(N2CC(C(=O)Nc3ccc(C4CCN(C(=O)c5ccccc5)CC4)cc3)C2)cnc1F [Example 665, N-[4-(1-benzoylpiperidin-4-yl)phenyl]-1-(6-fluoro-5-methylpyridin-3-yl)azetidine-3-carboxamide]",IC50,7620 nM
"O=C(Nc1ccc(C2CCN(C(=O)c3ccccc3)CC2)cc1)C1CN(c2cncc(F)c2)C1 [Example 666, N-[4-(1-benzoylpiperidin-4-yl)phenyl]-1-(5-fluoropyridin-3-yl)azetidine-3-carboxamide]",IC50,8.06 nM
"Cc1ccc(N2CC(C(=O)Nc3ccc(C4CCN(C(=O)c5ccccc5)CC4)cc3)C2)nn1 [Example 667, N-[4-(1-benzoylpiperidin-4-yl)phenyl]-1-(6-methylpyridazin-3-yl)azetidine-3-carboxamide]",IC50,12.5 nM
"Cc1ccc(N2CC(C(=O)Nc3ccc(C4CCN(C(=O)c5ccccc5)CC4)cc3)C2)c(F)n1 [Example 668, N-[4-(1-benzoylpiperidin-4-yl)phenyl]-1-(2-fluoro-6-methylpyridin-3-yl)azetidine-3-carboxamide]",IC50,> 10000 nM
"O=C(Nc1ccc(C2CCN(C(=O)c3ccccc3Cl)CC2)cc1)[C@H]1CCN(c2cccnn2)C1 [Example 669, (3S)-N-{4-[1-(2-chlorobenzoyl)piperidin-4-yl]phenyl}-1-(pyridazin-3-yl)pyrrolidine-3-carboxamide]",IC50,1.88 nM
"CCCC(C)C(=O)N1CCC(c2ccc(NC(=O)[C@H]3CCN(c4cccnn4)C3)cc2)CC1 (stereo partly drawn) [Example 670, (3S)-N-{4-[1-(2-methylpentanoyl)piperidin-4-yl]phenyl}-1-(pyridazin-3-yl)pyrrolidine-3-carboxamide]",IC50,8.53 nM
"CC(C)CCC(=O)N1CCC(c2ccc(NC(=O)[C@H]3CCN(c4cccnn4)C3)cc2)CC1 [Example 671, (3S)-N-{4-[1-(4-methylpentanoyl)piperidin-4-yl]phenyl}-1-(pyridazin-3-yl)pyrrolidine-3-carboxamide]",IC50,8.53 nM
"Cc1ccc(C(=O)N2CCC(c3ccc(NC(=O)[C@H]4CCN(c5cccnn5)C4)cc3)CC2)c(C)c1 [Example 672, (3S)-N-{4-[1-(2,4-dimethylbenzoyl)piperidin-4-yl]phenyl}-1-(pyridazin-3-yl)pyrrolidine-3-carboxamide]",IC50,4.05 nM
"CCCCCCC(=O)N1CCC(c2ccc(NC(=O)[C@H]3CCN(c4cccnn4)C3)cc2)CC1 [Example 673, (3S)-N-[4-(1-heptanoylpiperidin-4-yl)phenyl]-1-(pyridazin-3-yl)pyrrolidine-3-carboxamide]",IC50,11.6 nM
"O=C(Nc1ccc(C2CCN(C(=O)c3ccc(Cl)cc3Cl)CC2)cc1)[C@H]1CCN(c2cccnn2)C1 [Example 674, (3S)-N-{4-[1-(2,4-dichlorobenzoyl)piperidin-4-yl]phenyl}-1-(pyridazin-3-yl)pyrrolidine-3-carboxamide]",IC50,5.72 nM
"O=C(Nc1ccc(C2CCN(C(=O)Cc3ccc(F)cc3)CC2)cc1)[C@H]1CCN(c2cccnn2)C1 [Example 675, (3S)-N-(4-{1-[(4-fluorophenyl)acetyl]piperidin-4-yl}phenyl)-1-(pyridazin-3-yl)pyrrolidine-3-carboxamide]",IC50,69.3 nM
"O=C(Nc1ccc(C2CCN(C(=O)c3cccc(F)c3F)CC2)cc1)[C@H]1CCN(c2cccnn2)C1 [Example 676, (3S)-N-{4-[1-(2,3-difluorobenzoyl)piperidin-4-yl]phenyl}-1-(pyridazin-3-yl)pyrrolidine-3-carboxamide]",IC50,2.02 nM
"Cc1cccc(C(=O)N2CCC(c3ccc(NC(=O)[C@H]4CCN(c5cccnn5)C4)cc3)CC2)c1 [Example 677, (3S)-N-{4-[1-(3-methylbenzoyl)piperidin-4-yl]phenyl}-1-(pyridazin-3-yl)pyrrolidine-3-carboxamide]",IC50,9.3 nM
